This is an account of results in publication PMC4900628, “Critical Evaluation of P2X7 Receptor Antagonists in Selected Seizure Models” (PLoS ONE, 2016).

The structures appear in SMILES notation. Where two headings read alike, the source gives them in different places.

Common to all, as to format: in vivo
Data set [1] relates to electroshock-induced tonic (hindlimb extension) seizures. In words: Maximal electroshock seizure threshold test (MES-T). The conditions noted are these: mice; carbamazepine 7 mg/kg i.p. alone, 30 min before. Here is the method:
The stimulus train was applied via ear-clip electrodes (sinusoidal pulses 4-14 mA, 50 Hz, 0.2 s duration) by means of a constant current stimulator (rodent-shocker type 221; Hugo Sachs Elektronik, March-Hugstetten, Germany). […] Groups of 20 mice were used. Control groups, which received the corresponding vehicle, were tested together with the compound-treated groups on the same experimental day. Current intensity-effect curves were obtained on the basis of the number of animals responding with the endpoint at the corresponding current value. The results are calculated as convulsive current fifty (CC50) values (current intensity in mA, necessary to produce tonic hindlimb extension in 50% of the mice tested) including the confidence limits for 95% probability. […] Chemicals, Toronto, Canada) was slowly added. The pH was adjusted with 1N NaOH (similar amount of NaOH as HCl), all with continuous stirring. […] The drug solutions or suspensions were prepared immediately before use; all doses refer to the salts. Animals in the control group received equivalent volumes of the vehicle (in mice always 10 ml/kg, in rats 1 ml/kg [JNJ], 3 ml/kg [AFC] or 4 ml/kg [BBG, TIIAS], depending on the solubility of the different compounds). Doses and peak time effects were selected on the basis of effective doses from corresponding in vivo studies in the literature: BBG (e.g.), tanshinone IIA (e.g.) and from manufacturer's experimental data: AFC, JNJ (see, [80]). Data were analysed using SigmaPlot (vers. 12.0, Systat Software, Erkrath, Germany) and SPSS (IBM SPSS Statistics 20, […], Germany), respectively. Results are expressed as mean ± SEM. […] In the PTZ-T, the number of animals in the group with clonic seizures and the latency time were analysed using Fisher's exact probability test and the Mann-Whitney rank sum test, respectively. […] In the PTZ-kindling model, the mean seizure stage within a group was calculated in relation to the number of PTZ-injections. […] In fully kindled rats, the calculated mean seizure stage within a group after vehicle- and compound-treatment were compared using a paired t-test. […]

Data set [2] has as its system PTZ-induced seizures in fully PTZ-kindled rats. In words: PTZ-induced seizures in fully kindled rats. The following applies: fully kindled rats; 20 mg/kg i.p.; pre-drug (vehicle) value 4.1. The source says: Results were expressed as mean seizure stages of a tested group in which the seizure behaviour after vehicle treatment (vehicle seizure stage) and after compound treatment (compound seizure stage), examined 3-4 days later, was matched. For comparison, the effectiveness of two antiepileptic drugs (carbamazepine and valproate) was also investigated. […] Chemicals, Toronto, Canada) was slowly added. The pH was adjusted with 1N NaOH (similar amount of NaOH as HCl), all with continuous stirring. […] The drug solutions or suspensions were prepared immediately before use; all doses refer to the salts. Animals in the control group received equivalent volumes of the vehicle (in mice always 10 ml/kg, in rats 1 ml/kg [JNJ], 3 ml/kg [AFC] or 4 ml/kg [BBG, TIIAS], depending on the solubility of the different compounds). Doses and peak time effects were selected on the basis of effective doses from corresponding in vivo studies in the literature: BBG (e.g.), tanshinone IIA (e.g.) and from manufacturer's experimental data: AFC, JNJ (see, [80]). Data were analysed using SigmaPlot (vers. 12.0, Systat Software, Erkrath, Germany) and SPSS (IBM SPSS Statistics 20, […], Germany), respectively. Results are expressed as mean ± SEM. […] In the MES-T, the current intensity inducing tonic hindlimb extensions in 50% of the mice (CC50 values with confidence limits for 95% probability) and the statistical significance was calculated using Probit analysis (SPSS). […] In the PTZ-T, the number of animals in the group with clonic seizures and the latency time were analysed using Fisher's exact probability test and the Mann-Whitney rank sum test, respectively. For multiple comparisons of the latency time a one-way ANOVA with the Holm-Sidak post hoc test was used. The influence of AFC on the plasma and brain concentrations of the antiepileptic drugs was statistical compared using the same procedure. In the PTZ-kindling model, the mean seizure stage within a group was calculated in relation to the number of PTZ-injections. Statistical comparison between vehicle- and compound-treated groups in this model was performed with two-way repeated measures ANOVA, followed by the Holm-Sidak post hoc test. The mean number of PTZ-injections needed to produce the first generalized seizure (≥ stage 3 convulsions) in the vehicle- versus compound-treated groups was statistically compared using a Mann-Whitney rank sum test. In fully kindled rats, the calculated mean seizure stage within a group after vehicle- and compound-treatment were compared using a paired t-test. P < 0.05 was the accepted minimum level of significance.

The nature of data set [3]: Plasma and brain concentration in mice (co-administration with AEDs). The conditions noted are these: MES-T; for concentration at 30 min: mouse, brain, intraperitoneal, CBZ 7 mg/kg i.p. On the procedure:
Blood was collected intracardially by heart […] pipettes supplemented with heparin-Na (ratiopharm, Ulm, Germany; 10μl of 5.000 I.U./ml) and separated by centrifuging (1500xg for 10 min) at 6-8°C. The plasma was stored at -20°C in plastic tubes. After blood sample collection, rats were decapitated and brains were quickly dissected. After removing the adherent blood by tissue paper and cutting off the cerebellum, the samples were fresh frozen using liquid nitrogen. Brain tissue was stored at -80°C and delivered to the different laboratories on dry ice. For mice (groups with n = 6), a similar procedure was used for the preparation of plasma and brain samples. In experiments in which AFC was co-administered with carbamazepine or ethosuximide, drug concentrations in plasma and brain were estimated to detect potential pharmacokinetic interactions. Samples from experiments with AFC were analysed at the Lead Discovery Center (Dortmund, Germany). Briefly, AFC, carbamazepine and ethosuximide were extracted from plasma and homogenized brain by protein precipitation using acetonitrile. Resulting filtrates were analysed by liquid chromatography tandem-mass spectrometry (LC-MS/MS) using a Prominence UFLC system (Shimadzu, Duisburg, Germany) coupled to a QTrap 5500 instrument (ABSciex, Darmstadt, Germany). The compounds were separated on a Zorbax Eclipse Plus C18 column (Agilent Technologies, Santa Clara, CA, USA) with an acetonitrile/water gradient containing 0.1% formic acid as solvent. Chromatographic conditions and mass spectrometer parameters were optimized for each analyte. Plasma and brain concentrations of the compounds were calculated by means of a standard curve. Data were analysed using SigmaPlot (vers. 12.0, Systat Software, Erkrath, Germany) and SPSS (IBM SPSS Statistics 20, […], Germany), respectively. Results are expressed as mean ± SEM. […] In the MES-T, the current intensity inducing tonic hindlimb extensions in 50% of the mice (CC50 values with confidence limits for 95% probability) and the statistical significance was calculated using Probit analysis (SPSS). […] In the PTZ-T, the number of animals in the group with clonic seizures and the latency time were analysed using Fisher's exact probability test and the Mann-Whitney rank sum test, respectively. For multiple comparisons of the latency time a one-way ANOVA with the Holm-Sidak post hoc test was used. The influence of AFC on the plasma and brain concentrations of the antiepileptic drugs was statistical compared using the same procedure. In the PTZ-kindling model, the mean seizure stage within a group was calculated in relation to the number of PTZ-injections. Statistical comparison between vehicle- and compound-treated groups in this model was performed with two-way repeated measures ANOVA, followed by the Holm-Sidak post hoc test. The mean number of PTZ-injections needed to produce the first generalized seizure (≥ stage 3 convulsions) in the vehicle- versus compound-treated groups was statistically compared using a Mann-Whitney rank sum test. In fully kindled rats, the calculated mean seizure stage within a group after vehicle- and compound-treatment were compared using a paired t-test. P < 0.05 was the accepted minimum level of significance.

For the compound `NC(=O)N1c2ccccc2C=Cc2ccccc21` [carbamazepine], the “increase of the electroconvulsive threshold” value in data set [1] is listed as “about 50%”. Moreover, in data set [2], the “mean seizure stage, post-drug” value is 2.3. Besides, the “plasma concentrations of CBZ on co-application of AFC” value in data set [3] (AFC 25 or 50 mg/kg s.c.) is given as “not significantly modulated”. The concentration at 30 min in data set [3] (7 mg/kg, n = 6, read-out: brain concentration of CBZ alone) worked out at 22.8 ± 1.5 µM; in data set [3] (n = 6, significantly lowered, read-out: brain concentration of CBZ with AFC 25 mg/kg s.c.), 16.2 ± 0.6 µM; in data set [3] (n = 6, significantly lowered, read-out: brain concentration of CBZ with AFC 50 mg/kg s.c.) it was 17.2 ± 1.7 µM.
